From ChEMBL document CHEMBL3880414, “Isoform Selective HDAC Inhibitors” (2010) come the findings set out here.

A short description of assay [1]: Antiproliferative activity against human MCF10A cells. The format is cell-based. Particulars: MCF-10A.
Assay [2] in a line: Antiproliferative activity against human HS68 cells. It counts as cell-based.
A short description of assay [3]: Antiproliferative activity against human SCC35 cells. The format is functional, cell-based.
The nature of assay [4]: Antiproliferative activity against human DU145 cells. It counts as functional, cell-based. Particulars: DU-145.
A short description of assay [5]: Antiproliferative activity against human MCF7/ADR cells. The note with it: NCI/ADR-RES. The format is functional, cell-based.
The nature of assay [6]: Antiproliferative activity against human MDA231 cells. Particulars: MDA-MB-231. It counts as functional, cell-based.
Assay [7] relates to Plasmodium falciparum. The assay can be described thus: Antiparasitic activity against Plasmodium falciparum 7G8 assessed as growth inhibition after 56 hrs. It counts as functional.
Assay [8] concerns Plasmodium falciparum. Briefly: Antiparasitic activity against Plasmodium falciparum FCR-3/Gambia assessed as growth inhibition after 56 hrs. It counts as functional.
The test system of assay [9] is Plasmodium falciparum. Briefly: Antiparasitic activity against Plasmodium falciparum Dd2 assessed as growth inhibition after 56 hrs. It counts as functional.
The subject of assay [10] is Plasmodium falciparum. The assay can be described thus: Antiparasitic activity against Plasmodium falciparum 3D7 assessed as growth inhibition after 56 hrs. The format is functional.
In assay [11] the test system is Plasmodium falciparum. Briefly: Antiparasitic activity against chloroquine-resistant/verapamil-insensitive Plasmodium falciparum 7G8. It counts as functional.
Assay [12] relates to Plasmodium falciparum. The assay can be described thus: Antiparasitic activity against chloroquine-sensitive Plasmodium falciparum 3D7. It counts as functional.
Assay [13] relates to Plasmodium falciparum. Briefly: Antiparasitic activity against chloroquine-sensitive Plasmodium falciparum HB3. It counts as functional.
Assay [14] concerns Plasmodium falciparum. Briefly: Antiparasitic activity against chloroquine-resistant/verapamil-sensitive Plasmodium falciparum Dd2 assessed as growth inhibition in presence of chloroquine. It counts as functional.
The target in assay [15] is T1, Histone deacetylase (Homo sapiens) (UniProt Q13547+O15379+Q9UBN7+Q92769+Q9UQL6+Q8WUI4+Q9BY41+Q96DB2+P56524+Q9UKV0+Q969S8). The assay can be described thus: Inhibition of HDAC (unknown origin) at 100 nM using Fluor-Lys as substrate relative to control. It counts as protein assay.
Assay [16] addresses T1, Histone deacetylase (Homo sapiens). Briefly: Potency index, ratio of trichostatin A IC50 to compound IC50 for HDAC (unknown origin). It counts as protein assay.
Assay [17] relates to Plasmodium falciparum. Briefly: Antiparasitic activity against Plasmodium falciparum 3D7 assessed as growth inhibition. It counts as functional.
The subject of assay [18] is Plasmodium falciparum. The assay can be described thus: Antiparasitic activity against Plasmodium falciparum Dd2 assessed as growth inhibition. The format is functional.
Assay [19] deals with Plasmodium falciparum. The assay can be described thus: Antiparasitic activity against chloroquine-resistant/verapamil-sensitive Plasmodium falciparum Dd2. It counts as functional.
For assay [20], the system named is Plasmodium falciparum. Briefly: Antiparasitic activity against chloroquine-resistant/verapamil-sensitive Plasmodium falciparum FCR-3/Gambia. The format is functional.
Assay [21] in a line: Antiproliferative activity against human NHP5 cells. It counts as cell-based.
Assay [22] concerns Plasmodium falciparum. The assay can be described thus: Antiparasitic activity against chloroquine-resistant/verapamil-sensitive Plasmodium falciparum FCB. The format is functional.
Assay [23] deals with Plasmodium falciparum. The assay can be described thus: Antiparasitic activity against chloroquine-resistant/verapamil-sensitive Plasmodium falciparum VS/1. It counts as functional.
For assay [24], the system named is Plasmodium falciparum. The assay can be described thus: Potentiation of chloroquine-induced anitiparasitic activity in chloroquine-resistant/verapamil-sensitive Plasmodium falciparum FCB assessed as decrease in chloroquine IC50 relative to control. It counts as functional.
In assay [25] the test system is Plasmodium falciparum. Briefly: Potentiation of chloroquine-induced anitiparasitic activity in chloroquine-resistant/verapamil-sensitive Plasmodium falciparum Dd2 assessed as decrease in chloroquine IC50 relative to control. It counts as functional.

Usually IC50 stands for the point on the concentration scale where inhibition reaches its midpoint. Read a high IC50 as weaker potency in that assay. In general, inhibition refers to the percentage by which the read-out fell short of the control. Low values mean little suppression, high ones strong suppression.

Calls of active or inactive are those of the source. The calls are words filed in the database; no cut-off is given here.

As for `N[C@@H](Cc1c[nH]c2ccccc12)C(=O)Nc1ccccc1-c1ccc(NC(=O)CCCCCCC(=O)NO)cc1`, the results for the half-inhibitory concentration (IC50) in assay [1] and in assay [2] were over 100000 nM and over 300000 nM, respectively.
With `Nc1cccc(-c2csc(NC(=O)CCCCCCC(=O)NO)n2)c1`, the half-inhibitory concentration (IC50) is 100 nM in [3]; 320 nM in assay [4]; 3000 nM in [5]; under 400 nM in assay [6]; 0.175 nM with Plasmodium falciparum [11]; 1.25 nM with Plasmodium falciparum [12]. In the assay on Plasmodium falciparum [13], this compound returned a half-maximal inhibitory concentration (IC50) of 0.9 nM. Besides, the “growth inhibition (GI)” value in the assay with Plasmodium falciparum [7], with Plasmodium falciparum [8], with Plasmodium falciparum [9], in the assay with Plasmodium falciparum [10] and in the assay with Plasmodium falciparum [14] was “Active” throughout.
For `Nc1ccccc1-c1csc(NC(=O)CCCCCCC(=O)NO)n1`, the inhibition in assay [15] was found to be 2%.
On to `CCOC(=O)Nc1cccc(-c2csc(NC(=O)CCCCCCC(=O)NO)n2)c1`, for which the Ratio IC50 in [16] is 2. In addition, the half-maximal inhibitory concentration (IC50) in assay [3] worked out at 190 nM; in [4] it was 520 nM.
On to `O=C(CCCCCCC(=O)Nc1ccc(-c2ccccc2)cc1)NO`, for which the IC50 in [3] is 100 nM; in assay [4] it was 580 nM; in assay [5], 350 nM; in assay [6], under 400 nM. Besides, the “growth inhibition (GI)” value in the assay on Plasmodium falciparum [17], in the assay on Plasmodium falciparum [7] and in the assay with Plasmodium falciparum [18] was “Active” each time.
`N[C@@H](Cc1ccccc1)C(=O)Nc1ccccc1-c1ccc(NC(=O)CCCCCCC(=O)NO)cc1` displayed a half-maximal inhibitory concentration (IC50) in assay [1] of 100000 nM.
As to `O=C(CCCCCCC(=O)Nc1nc(-c2cccc([N+](=O)[O-])c2)cs1)NO`, the IC50 in assay [3] is 380 nM; in [4], 320 nM; in assay [5], 3000 nM; in assay [6], under 400 nM; in the assay on Plasmodium falciparum [11] it was 10 nM; with Plasmodium falciparum [19], 12 nM. The IC50 in the assay on Plasmodium falciparum [20] amounted to 22 nM; in the assay on Plasmodium falciparum [12], 30 nM. Moreover, the “growth inhibition (GI)” value with Plasmodium falciparum [7], with Plasmodium falciparum [8], with Plasmodium falciparum [9] and in the assay with Plasmodium falciparum [10] was “Active” throughout.
For `Nc1ccccc1-c1ccc(NC(=O)CCCCCCC(=O)NO)cc1`, the IC50 in assay [3] is 2580 nM; in [4] it was 180 nM; in [5] it was 10000 nM; in assay [6], 1000 nM. Also, the “growth inhibition (GI)” value with Plasmodium falciparum [17], with Plasmodium falciparum [7] and in the assay with Plasmodium falciparum [18] was “Active” in each case.
Turning to `N[C@@H](Cc1ccc(O)cc1)C(=O)Nc1ccccc1-c1ccc(NC(=O)CCCCCCC(=O)NO)cc1`, the IC50 in assay [21] was 100000 nM; in assay [1], over 100000 nM; in assay [2] it was over 300000 nM.
`O=C(CCCCCCC(=O)Nc1nc(-c2ccccc2)cs1)NO`: the concentration for half-maximal inhibition (IC50) is 280 nM in assay [3], 190 nM in [4], 400 nM in assay [5] and under 400 nM in assay [6]. Besides, the “growth inhibition (GI)” value in the assay on Plasmodium falciparum [7], with Plasmodium falciparum [8], in the assay on Plasmodium falciparum [9] and in the assay with Plasmodium falciparum [10] was “Active” throughout.
For `CN(C)c1ccc(NC(=O)NCCCCCCC(=O)NO)cc1`, the IC50 worked out at 300 nM in the assay on Plasmodium falciparum [11]; 185 nM with Plasmodium falciparum [19]; 175 nM with Plasmodium falciparum [20]; 450 nM in the assay with Plasmodium falciparum [12]; 250 nM in the assay on Plasmodium falciparum [13]; 125 nM in the assay on Plasmodium falciparum [22]. In addition, the IC50 in the assay on Plasmodium falciparum [23] worked out at 250 nM. For the same compound, the “fold change (FC)” value with Plasmodium falciparum [24] was found to be 5.5; in the assay on Plasmodium falciparum [25], 3.5.
